Reference: patent publication US6908919B2, “Substituted polycyclic aryl and heteroaryl pyrazinones useful for selective inhibition of the coagulation cascade” (Pharmacia Corporation, priority 1999, dated 2005)

These compounds were tested against Human factor Xa (Homo sapiens, UniProt P00742) (assay: Xa Assay). Conditions: not given.
Type: biochemical
Design: purchased Enzyme Research Laboratories, South Bend Ind

Human factor Xa, sequence (P00742 41-179 limits assumed): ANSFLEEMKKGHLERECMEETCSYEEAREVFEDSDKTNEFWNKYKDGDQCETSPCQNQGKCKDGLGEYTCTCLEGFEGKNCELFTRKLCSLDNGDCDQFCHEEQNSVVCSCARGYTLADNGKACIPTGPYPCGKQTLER
Human factor Xa, sequence (P00742 235-488 limits assumed): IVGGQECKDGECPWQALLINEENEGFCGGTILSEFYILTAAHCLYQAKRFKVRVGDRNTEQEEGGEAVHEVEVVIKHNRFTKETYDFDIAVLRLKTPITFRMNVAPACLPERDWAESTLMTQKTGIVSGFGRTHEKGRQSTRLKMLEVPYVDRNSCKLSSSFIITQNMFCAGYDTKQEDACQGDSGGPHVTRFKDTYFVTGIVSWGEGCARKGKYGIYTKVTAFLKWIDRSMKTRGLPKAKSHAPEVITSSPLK

SMILES | % Inhibition Factor Xa (100 µM) [%]
O=C(Cn1c(-c2ccc(-c3ccccc3)cc2)c(Cl)nc(NCCc2ccc(Cl)cc2)c1=O)NCCc1cccnc1 [Example E-0119] | 5

Same assay, conditions: at 30 µM

% Inhibition Factor Xa (30 µM) [%] | SMILES
41 | N=C(N)c1ccc(CNC(=O)Cn2c(-c3cccc(N)c3)c(Cl)nc(NCCN3CCCCC3)c2=O)cc1 [1543-15]
0 | C[C@H](C(=O)NCc1ccc(C(=N)N)cc1)n1c(-c2ccccc2)c(Cl)nc(NCCc2ccccc2)c1=O [Example 1517-17]
34 | N=C(N)c1ccc(CNC(=O)Cn2c(-c3cccc(N)c3)c(Cl)nc(NCCN3CCCC3)c2=O)cc1 [1543-03]
0 | N=C(N)c1ccc(CNC(=O)Cn2c(-c3c(Cl)cccc3Cl)c(Cl)nc(NCCc3cccc(Cl)c3)c2=O)cc1 [Example 1517-24]
20 | N=C(N)c1ccc(CNC(=O)Cn2c(-c3cccc(N)c3)c(Cl)nc(NC3CCCC3)c2=O)c(F)c1 [1543-34]
14 | CNc1nc(Cl)c(-c2cccc(N)c2)n(CC(=O)NCc2ccc(C(=N)N)cc2)c1=O [1543-05]
14 | CC(C)CNc1nc(Cl)c(-c2cccc(N)c2)n(CC(=O)NCc2ccc(C(=N)N)cc2F)c1=O [1543-38]
0 | N=C(N)c1ccc(CNC(=O)Cn2c(-c3ccccc3)c(Cl)nc(NC3CCCCC3)c2=O)cc1 [Example 1517-25]
0 | CSCC(C(=O)NCc1ccc(C(=N)N)cc1)n1c(-c2ccccc2)c(Cl)nc(NCCc2ccccc2)c1=O (stereo not drawn) [Example 1517-16]

Same assay, conditions: at 30 µM inhibitor

SMILES | % Inhibition Factor Xa (30 µM)
N=C(N)c1ccc(CNC(=O)Cn2c(-c3ccccc3)c(Cl)nc(NCc3ccc(Cl)cc3)c2=O)cc1 [1507-46] | 8%
CCc1c(Cl)nc(NCc2ccncc2)c(=O)n1CC(=O)NCc1ccc(C(=N)N)cc1 [1471-59] | 0%
N=C(N)c1ccc(CNC(=O)Cn2c(-c3ccc(Cl)cc3)c(Cl)nc(NCCc3ccccc3)c2=O)cc1 [1471-23] | 36%
N=C(N)c1ccc(CNC(=O)Cn2c(-c3ccccc3)c(Cl)nc(NCc3ccncc3)c2=O)cc1 [1471-11] | 9%
N=C(N)c1ccc(CNC(=O)Cn2c(-c3cccc(Cl)c3)c(Cl)nc(NCCN3CCOCC3)c2=O)cc1 [1471-28] | 8%
N=C(N)c1ccc(CNC(=O)Cn2c(-c3cccc(Cl)c3)c(Cl)nc(NCCc3ccncc3)c2=O)cc1 [1471-29] | 21%
CCc1c(Cl)nc(NCCN2CCOCC2)c(=O)n1CC(=O)NCc1ccc(C(=N)N)cc1 [1471-60] | 0%
CCc1c(Cl)nc(NCCc2cccnc2)c(=O)n1CC(=O)NCc1ccc(C(=N)N)cc1 [1471-64] | 2%
N=C(N)c1ccc(CNC(=O)Cn2c(-c3ccc4c(c3)OCO4)c(Cl)nc(NCCc3ccc(Cl)cc3)c2=O)cc1 [1471-42] | 15%
CCc1c(Cl)nc(NCCc2ccncc2)c(=O)n1CC(=O)NCc1ccc(C(=N)N)cc1 [1471-61] | 0%

Other lines, results leading:

% Inhibition Factor Xa (30 µM) | SMILES
4% | N=C(N)c1ccc(CNC(=O)Cn2c(-c3ccccc3)c(Cl)nc(NCC3COc4ccccc4O3)c2=O)cc1 (stereo not drawn) [1512-01]
16% @ 30 | N=C(N)c1ccc(CNC(=O)Cn2c(-c3cccc(N)c3)c(Cl)nc(NC3CCC3)c2=O)cc1 [Example 90]
0% | CSCC(C(=O)NCc1ccc(C(=N)N)cc1)n1c(-c2ccccc2)c(Cl)nc(NC2CCC2)c1=O (stereo not drawn) [Example 1517-10]
0% | Nc1n[nH]c2cc(CNC(=O)Cn3c(-c4ccccc4)cnc(NCCc4ccccc4)c3=O)ccc12 [Example 39]
22% | Nc1n[nH]c2ccc(CNC(=O)Cn3c(-c4ccccc4)cnc(NCCc4ccccc4)c3=O)cc12 [Example 38]
38% @ 30 | N=C(N)c1ccc(CNC(=O)Cn2c(-c3cccc(Cl)c3)c(Cl)nc(NCc3ccccc3)c2=O)cc1 [Example 23]
9% | CC(C)Nc1nc(Cl)c(-c2cccnc2)n(CC(=O)NCc2ccc(C(=N)N)cc2)c1=O [Example 75]
